Test results: the NIST ThermoML archive (doi:10.1016/j.jct.2015.01.007)
Numbers after ± are expanded uncertainties.

Settings: for molar entropy: 101.33 kPa

O=P([O-])([O-])[O-].[Fe+2].[Li+] [iron(II) lithium phosphate]
molar entropy (5 K, Crystal 2, relaxation calorimetry): 0.0577 ± 0.0068 J/K/mol
molar entropy (10 K, Crystal 2, relaxation calorimetry): 0.1645 ± 0.019 J/K/mol
molar entropy (15 K, Crystal 2, relaxation calorimetry): 0.5534 ± 0.065 J/K/mol
molar entropy (20 K, Crystal 2, relaxation calorimetry): 1.241 ± 0.15 J/K/mol
molar entropy (25 K, Crystal 2, relaxation calorimetry): 2.309 ± 0.14 J/K/mol
molar entropy (30 K, Crystal 2, relaxation calorimetry): 3.785 ± 0.23 J/K/mol
molar entropy (35 K, Crystal 2, relaxation calorimetry): 5.708 ± 0.35 J/K/mol
molar entropy (40 K, Crystal 2, relaxation calorimetry): 8.078 ± 0.49 J/K/mol
molar entropy (42 K, Crystal 2, relaxation calorimetry): 9.158 ± 0.56 J/K/mol
molar entropy (45 K, Crystal 2, relaxation calorimetry): 10.96 ± 0.67 J/K/mol
molar entropy (46 K, Crystal 2, relaxation calorimetry): 11.63 ± 0.71 J/K/mol
molar entropy (47 K, Crystal 2, relaxation calorimetry): 12.33 ± 0.75 J/K/mol
molar entropy (48 K, Crystal 2, relaxation calorimetry): 13.07 ± 0.8 J/K/mol
molar entropy (49 K, Crystal 2, relaxation calorimetry): 13.86 ± 0.84 J/K/mol
molar entropy (49.24 K, Crystal 1, combination of DSC and relaxation calorimetry): 14.06 ± 0.86 J/K/mol
molar entropy (49.24 K, Crystal 2, relaxation calorimetry): 14.06 ± 0.86 J/K/mol
molar entropy (50 K, Crystal 1, combination of DSC and relaxation calorimetry): 14.7 ± 0.9 J/K/mol
molar entropy (51 K, Crystal 1, combination of DSC and relaxation calorimetry): 15.21 ± 0.93 J/K/mol
molar entropy (52 K, Crystal 1, combination of DSC and relaxation calorimetry): 15.67 ± 0.95 J/K/mol
molar entropy (53 K, Crystal 1, combination of DSC and relaxation calorimetry): 16.11 ± 0.98 J/K/mol
molar entropy (54 K, Crystal 1, combination of DSC and relaxation calorimetry): 16.53 ± 1 J/K/mol
molar entropy (55 K, Crystal 1, combination of DSC and relaxation calorimetry): 16.95 ± 1 J/K/mol
molar entropy (60 K, Crystal 1, combination of DSC and relaxation calorimetry): 19.01 ± 1.2 J/K/mol
molar entropy (65 K, Crystal 1, combination of DSC and relaxation calorimetry): 21.09 ± 1.3 J/K/mol
molar entropy (70 K, Crystal 1, combination of DSC and relaxation calorimetry): 23.23 ± 1.4 J/K/mol
molar entropy (80 K, Crystal 1, combination of DSC and relaxation calorimetry): 27.71 ± 1.7 J/K/mol
molar entropy (90 K, Crystal 1, combination of DSC and relaxation calorimetry): 32.41 ± 2 J/K/mol
molar entropy (100 K, Crystal 1, combination of DSC and relaxation calorimetry): 37.27 ± 2.3 J/K/mol
molar entropy (110 K, Crystal 1, combination of DSC and relaxation calorimetry): 42.25 ± 2.6 J/K/mol
molar entropy (120 K, Crystal 1, combination of DSC and relaxation calorimetry): 47.28 ± 2.9 J/K/mol
molar entropy (130 K, Crystal 1, combination of DSC and relaxation calorimetry): 52.34 ± 3.2 J/K/mol
molar entropy (140 K, Crystal 1, combination of DSC and relaxation calorimetry): 57.41 ± 3.5 J/K/mol
molar entropy (150 K, Crystal 1, combination of DSC and relaxation calorimetry): 62.46 ± 3.8 J/K/mol
molar entropy (160 K, Crystal 1, combination of DSC and relaxation calorimetry): 67.48 ± 4.1 J/K/mol
molar entropy (170 K, Crystal 1, combination of DSC and relaxation calorimetry): 72.46 ± 4.4 J/K/mol
molar entropy (180 K, Crystal 1, combination of DSC and relaxation calorimetry): 77.39 ± 4.7 J/K/mol
molar entropy (190 K, Crystal 1, combination of DSC and relaxation calorimetry): 82.26 ± 5 J/K/mol
molar entropy (200 K, Crystal 1, combination of DSC and relaxation calorimetry): 87.07 ± 5.3 J/K/mol
molar entropy (210 K, Crystal 1, combination of DSC and relaxation calorimetry): 91.83 ± 5.6 J/K/mol
molar entropy (220 K, Crystal 1, combination of DSC and relaxation calorimetry): 96.51 ± 5.9 J/K/mol
molar entropy (230 K, Crystal 1, combination of DSC and relaxation calorimetry): 101.1 ± 6.2 J/K/mol
molar entropy (240 K, Crystal 1, combination of DSC and relaxation calorimetry): 105.7 ± 6.4 J/K/mol
molar entropy (250 K, Crystal 1, combination of DSC and relaxation calorimetry): 110.2 ± 6.7 J/K/mol
molar entropy (260 K, Crystal 1, combination of DSC and relaxation calorimetry): 114.6 ± 7 J/K/mol
molar entropy (270 K, Crystal 1, combination of DSC and relaxation calorimetry): 119 ± 7.3 J/K/mol
molar entropy (280 K, Crystal 1, combination of DSC and relaxation calorimetry): 123.3 ± 7.5 J/K/mol
molar entropy (290 K, Crystal 1, combination of DSC and relaxation calorimetry): 127.5 ± 7.8 J/K/mol
molar entropy (298.15 K, Crystal 1, combination of DSC and relaxation calorimetry): 130.9 ± 8 J/K/mol
molar entropy (300 K, Crystal 1, combination of DSC and relaxation calorimetry): 131.7 ± 8 J/K/mol
molar entropy (320 K, Crystal 1, combination of DSC and relaxation calorimetry): 139.9 ± 8.5 J/K/mol
molar entropy (340 K, Crystal 1, combination of DSC and relaxation calorimetry): 147.9 ± 9 J/K/mol
molar entropy (360 K, Crystal 1, combination of DSC and relaxation calorimetry): 155.6 ± 9.5 J/K/mol
molar entropy (380 K, Crystal 1, combination of DSC and relaxation calorimetry): 163.1 ± 9.9 J/K/mol
molar entropy (400 K, Crystal 1, combination of DSC and relaxation calorimetry): 170.5 ± 10 J/K/mol
molar entropy (420 K, Crystal 1, combination of DSC and relaxation calorimetry): 177.6 ± 11 J/K/mol
molar entropy (440 K, Crystal 1, combination of DSC and relaxation calorimetry): 184.6 ± 11 J/K/mol
molar entropy (460 K, Crystal 1, combination of DSC and relaxation calorimetry): 191.4 ± 12 J/K/mol
molar entropy (480 K, Crystal 1, combination of DSC and relaxation calorimetry): 198 ± 12 J/K/mol
molar entropy (500 K, Crystal 1, combination of DSC and relaxation calorimetry): 204.4 ± 12 J/K/mol
molar entropy (520 K, Crystal 1, combination of DSC and relaxation calorimetry): 210.8 ± 13 J/K/mol
molar entropy (540 K, Crystal 1, combination of DSC and relaxation calorimetry): 216.9 ± 13 J/K/mol
molar entropy (560 K, Crystal 1, combination of DSC and relaxation calorimetry): 223 ± 14 J/K/mol
molar entropy (580 K, Crystal 1, combination of DSC and relaxation calorimetry): 228.9 ± 14 J/K/mol
molar entropy (600 K, Crystal 1, combination of DSC and relaxation calorimetry): 234.6 ± 14 J/K/mol
molar entropy (620 K, Crystal 1, combination of DSC and relaxation calorimetry): 240.3 ± 15 J/K/mol
molar entropy (640 K, Crystal 1, combination of DSC and relaxation calorimetry): 245.8 ± 15 J/K/mol
molar entropy (660 K, Crystal 1, combination of DSC and relaxation calorimetry): 251.2 ± 15 J/K/mol
molar entropy (680 K, Crystal 1, combination of DSC and relaxation calorimetry): 256.5 ± 16 J/K/mol
molar entropy (700 K, Crystal 1, combination of DSC and relaxation calorimetry): 261.8 ± 16 J/K/mol
molar entropy (720 K, Crystal 1, combination of DSC and relaxation calorimetry): 266.9 ± 16 J/K/mol
molar entropy (740 K, Crystal 1, combination of DSC and relaxation calorimetry): 271.9 ± 17 J/K/mol
molar entropy (760 K, Crystal 1, combination of DSC and relaxation calorimetry): 276.8 ± 17 J/K/mol
Triple point temperature (Crystal 2, Relaxation calorimeter): 49.24 ± 0.77 K
